Measurements reported in ChEMBL document CHEMBL5634099, “Pyrrole-thiazolidinone hybrids as a new structural class of broad-spectrum anti-infectives” (Eur J Med Chem, 2023).
≈ marks a conversion by molar mass, not a printed value.

What was measured:
Assay type in all cases: functional
[1] = system: Mycolicibacterium fortuitum; test: Antimycobacterial activity against Mycobacterium fortuitum ATCC 6841 assessed as bacterial growth inhibition incubated for 7 days by resazurin dye based assay; details: ATCC 6841, 168 h, time 7 day
[2] = system: Mycobacteroides chelonae; test: Antimycobacterial activity against Mycobacteroides chelonae ATCC 35752 assessed as bacterial growth inhibition incubated for 7 days by resazurin dye based assay; details: ATCC 35752, 168 h, time 7 day
[3] = system: Staphylococcus aureus; test: Antibacterial activity against Staphylococcus aureus ATCC 29213 assessed as bacterial growth inhibition incubated for 16 to 18 hrs by CLSI based susceptibility testing method; details: time 16-18 hrs
[4] = system: Mycobacterium tuberculosis; test: Antimycobacterial activity against Mycobacterium tuberculosis H37Rv ATCC 27294 assessed as bacterial growth inhibition incubated for 7 days by resazurin dye based assay; details: H37Rv ATCC 27294, 168 h, time 7 day
[5] = system: Pseudomonas aeruginosa; test: Antibacterial activity against Pseudomonas aeruginosa ATCC 27853 assessed as bacterial growth inhibition incubated for 16 to 18 hrs by CLSI based susceptibility testing method; details: time 16-18 hrs
[6] = system: Escherichia coli; test: Antibacterial activity against Escherichia coli ATCC 25922 assessed as bacterial growth inhibition incubated for 16 to 18 hrs by CLSI based susceptibility testing method; details: time 16-18 hrs
[7] = system: Mycobacteroides abscessus; test: Antimycobacterial activity against Mycobacterium abscessus ATCC 19977 assessed as bacterial growth inhibition incubated for 7 days by resazurin dye based assay; details: ATCC 19977, 168 h, time 7 day
[8] = system: Klebsiella pneumoniae; test: Antibacterial activity against Klebsiella pneumoniae BAA 1705 assessed as bacterial growth inhibition incubated for 16 to 18 hrs by CLSI based susceptibility testing method; details: time 16-18 hrs
[9] = system: Acinetobacter baumannii; test: Antibacterial activity against Acinetobacter baumannii BAA 1605 assessed as bacterial growth inhibition incubated for 16 to 18 hrs by CLSI based susceptibility testing method; details: time 16-18 hrs

SMILES | MIC [1] [µg/mL] | MIC [2] [µg/mL] | MIC [3] [µg/mL] | MIC [4] [µg/mL] | MIC [5] [µg/mL] | MIC [6] [µg/mL] | MIC [7] [µg/mL] | MIC [8] [µg/mL] | MIC [9] [µg/mL]
COc1ccc(-n2c(C)cc(/C=C3\S/C(=N/c4nc(C)c(C)s4)NC3=O)c2C)cc1OC | > 64 | > 64 | 64 (≈ 137 µM) | > 64 | > 64 | > 64 | > 64 | > 64 | > 64
Cc1cc(/C=C2\S/C(=N/c3nccs3)NC2=O)c(C)n1-c1ccccc1Br | > 64 | > 64 | 4 (≈ 8.71 µM) | 8 (≈ 17.4 µM) | > 64 | > 64 | > 64 | > 64 | > 64
COc1cccc(-n2c(C)cc(/C=C3\S/C(=N/c4nc(C)c(C)s4)NC3=O)c2C)c1 | > 64 | > 64 | > 64 | 2 (≈ 4.56 µM) | > 64 | > 64 | > 64 | > 64 | > 64
Cc1cc(/C=C2\S/C(=N/c3nccs3)NC2=O)c(C)n1-c1ccc([N+](=O)[O-])cc1 | > 64 | > 64 | > 64 | > 64 | > 64 | > 64 | > 64 | > 64 | > 64
Cc1cc(/C=C2\S/C(=N/c3nccs3)NC2=O)c(C)n1-c1cccc(F)c1 | > 64 | > 64 | 1 (≈ 2.51 µM) | 8 (≈ 20.1 µM) | > 64 | > 64 | > 64 | > 64 | > 64
COc1cccc(-n2c(C)cc(/C=C3\S/C(=N/c4nccs4)NC3=O)c2C)c1 | > 64 | > 64 | 64 (≈ 156 µM) | > 64 | > 64 | > 64 | > 64 | > 64 | > 64
COc1ccccc1-n1c(C)cc(/C=C2\S/C(=N/c3nc(C)c(C)s3)NC2=O)c1C | > 64 | > 64 | > 64 | > 64 | > 64 | > 64 | > 64 | > 64 | > 64
Cc1nc(/N=C2\NC(=O)/C(=C/c3cc(C)n(-c4ccc(C#N)c(Cl)c4)c3C)S2)sc1C | > 64 | > 64 | > 64 | > 64 | > 64 | > 64 | > 64 | > 64 | > 64
Cc1nc(/N=C2\NC(=O)/C(=C/c3cc(C)n(-c4ccccc4O)c3C)S2)sc1C | > 64 | > 64 | > 64 | > 64 | > 64 | > 64 | > 64 | > 64 | > 64
Cc1cc(/C=C2\S/C(=N/c3nccs3)NC2=O)c(C)n1-c1ccc(N2CCOCC2)cc1 | > 64 | > 64 | 16 (≈ 34.4 µM) | 4 (≈ 8.59 µM) | > 64 | > 64 | > 64 | > 64 | > 64
Cc1cc(/C=C2\S/C(=N/c3nccs3)NC2=O)c(C)n1-c1ccccc1O | > 64 | > 64 | 1 (≈ 2.52 µM) | 16 (≈ 40.4 µM) | > 64 | > 64 | > 64 | > 64 | > 64
Cc1cc(/C=C2\S/C(=N/c3nccs3)NC2=O)c(C)n1-c1ccc([N+](=O)[O-])c(C(F)(F)F)c1 | > 64 | > 64 | > 64 | > 64 | > 64 | > 64 | > 64 | > 64 | > 64
Cc1nc(/N=C2\NC(=O)/C(=C/c3cc(C)n(-c4ccc(F)cc4)c3C)S2)sc1C | > 64 | > 64 | > 64 | 16 (≈ 37.5 µM) | > 64 | > 64 | > 64 | > 64 | > 64
Cc1ccc(-n2c(C)cc(/C=C3\S/C(=N/c4nc(C)c(C)s4)NC3=O)c2C)cc1C | > 64 | > 64 | > 64 | 4 (≈ 9.16 µM) | > 64 | > 64 | > 64 | > 64 | > 64
Cc1nc(/N=C2\NC(=O)/C(=C/c3cc(C)n(-c4ccccc4)c3C)S2)sc1C | > 64 | > 64 | > 64 | > 64 | > 64 | > 64 | > 64 | > 64 | > 64
